Results: paper PMC8386730, “Pyrrolidine-based 3-deoxysphingosylphosphorylcholine analogs as possible candidates against neglected tropical diseases (NTDs): identification of hit compounds towards development of potential treatment of Leishmania donovani” (Journal of Enzyme Inhibition and Medicinal Chemistry, 2021)
Blank lines part the entries; values can stand above or below the compound they belong to.

Assays:
[1] = test system: L. donovani promastigotes; experiment: Growth inhibition of L. donovani promastigotes (resazurin-based assay); type: cell-based, Leishmania donovani; set-up: Inhibition at both 50 and 25 µM concentrations: unit: %; conditions: for inhibition at 25 µM / inhibition at 50 µM / IC50: Leishmania donovani, 72 h, incubation 3 days; for inhibition at 25 µM / inhibition at 50 µM: relative to control; for inhibition at 25 µM: read-out: % Inhibition at 25 µM concentration; for inhibition at 50 µM: read-out: % Inhibition at 50 µM concentration; for IC50: extracellular promastigotes, duplicates, read-out: IC50 ± SD, growth of L. donovani promastigotes; for Potency against promastigotes (in words): dose-response evaluation
Protocol: Out of 20 known Leishmania species pathogenic to humans, L. donovani, which causes visceral leishmaniasis, is the most fatal. Consequently, an in vitro model of L. donovani promastigotes[26] was selected to evaluate the activity of the synthesised pyrrolidine-based 3-deoxysphingosylphosphorylcholine analogs 1e–i, 2a–f, 3a–f at two concentration (50 and 25 µM) employing miltefosine and erufosine (ErPC; erucylphosphocholine) as reference standards using a resazurin-based assay.
For comparison, erufosine and miltefosine were used as reference standards.
L. donovani MHOM/SD/62/1S-CL2D parasites were cultured as promastigotes at 28 °C in M199 medium (Sigma-Aldrich, St. Louis, MO, USA) with 40 mM HEPES, 0.1 mM adenine, 0.0001% biotin, and 4.62 mM NaHCO3 supplemented with 10% foetal bovine serum (FBS, Gibco, Carlsbad, CA, USA), […] penicillin (Gibco), and 100 µg/mL streptomycin (Gibco). Parasites were sub-cultured every 3 or 4 days and maintained for 10 passages.
The plates were analysed using a Victor3TM plate reader (PerkinElmer, Inc., Waltham, MA, USA) at 590 nm (emission) and 530 nm (excitation). Miltefosine and erufosine were used as the reference standards. All measured and calculated values are the averages of duplicates. The dose-response curves were generated by GraphPad Prism 6 software using a sigmoidal dose-response equation with a variable hill slope option.

L. major promastigotes = test system: L. major promastigotes; set-up: method as in PMID 21267500; conditions: cited from earlier work

IC50 [1]: > 100 µM
Compound: CCCCCCCC/C=C\CCCCCCCC(=O)N1CC[C@@H](OP(=O)([O-])OCC[N+](C)(C)C)C1 [Compound 3c]
inhibition at 25 µM [1]: 106%
inhibition at 50 µM [1]: 106%
Activity at both 50 and 25 µM concentrations (in words) ([1]; both 50 and 25 µM): maintained high activity
Potency against promastigotes (in words) [1]: weak potency

Compound: CC/C=C\C/C=C\C/C=C\CCCCCCCC(=O)N1CCC[C@H]1COP(=O)([O-])OCC[N+](C)(C)C [Compound 1i]
inhibition at 25 µM [1]: -16%
inhibition at 50 µM [1]: 1%
Activity at both 50 and 25 µM concentrations (in words) ([1]; both 50 and 25 µM): completely inactive

IC50 [1]: > 100 µM
Compound: CCCCCCCC/C=C\CCCCCCCCCCCC(=O)N1CC[C@H](COP(=O)([O-])OCC[N+](C)(C)C)C1 [Compound 2d]
inhibition at 25 µM [1]: 107%
inhibition at 50 µM [1]: 109%
Activity at both 50 and 25 µM concentrations (in words) ([1]; both 50 and 25 µM): highly active
Potency against promastigotes (in words) [1]: poor potency

IC50 [1]: 46.65 ± 0.45 µM
Compound: CCCCCCCC/C=C\CCCCCCCCCCCC(=O)N1CCC[C@@H]1COP(=O)([O-])OCC[N+](C)(C)C [Compound 1d]
inhibition at 25 µM [1]: 107%
inhibition at 50 µM [1]: 108%
Inhibition at both 50 and 25 µM concentrations ([1]; both 50 and 25 µM): ≥ 100

IC50 [1]: > 100 µM
Compound: CCCCCCCC/C=C\CCCCCCCCCCCC(=O)N1CC[C@@H](OP(=O)([O-])OCC[N+](C)(C)C)C1 [Compound 3d]
inhibition at 25 µM [1]: 107%
inhibition at 50 µM [1]: 104%
Activity at both 50 and 25 µM concentrations (in words) ([1]; both 50 and 25 µM): highly active
Potency against promastigotes (in words) [1]: poor potency

Compound: CC/C=C\C/C=C\C/C=C\CCCCCCCC(=O)N1CC[C@@H](OP(=O)([O-])OCC[N+](C)(C)C)C1 [Compound 3f]
inhibition at 25 µM [1]: -14%
inhibition at 50 µM [1]: 1%
Activity at both 50 and 25 µM concentrations (in words) ([1]; both 50 and 25 µM): completely inactive

Compound: CCCCCC/C=C\CCCCCCCC(=O)N1CC[C@@H](OP(=O)([O-])OCC[N+](C)(C)C)C1 [Compound 3b]
inhibition at 25 µM [1]: 67%
inhibition at 50 µM [1]: 90%

Compound: CCCCCC/C=C\CCCCCCCC(=O)N1CC[C@H](COP(=O)([O-])OCC[N+](C)(C)C)C1 [Compound 2b]
inhibition at 25 µM [1]: 27%
inhibition at 50 µM [1]: 98%

Compound: CCCCCCCCCCCCC/C=C/C[C@@H](N)CO [Compound 26an]
Cytotoxicity against L. major promastigotes (in words) (L. major promastigotes): significant cytotoxicity

Compound: CCCCCCCC/C=C\CCCCCCCC(=O)N1CCC[C@@H]1COP(=O)([O-])OCC[N+](C)(C)C [Compound 1c]
inhibition at 25 µM [1]: 10%
inhibition at 50 µM [1]: 51%

Compound: CCCCCCCC/C=C\CCCCCCCC(=O)N1CCC[C@H]1COP(=O)([O-])OCC[N+](C)(C)C [Compound 1f]
inhibition at 25 µM [1]: 65%
inhibition at 50 µM [1]: 108%

Compound: CC/C=C\C/C=C\C/C=C\CCCCCCCC(=O)N1CC[C@H](COP(=O)([O-])OCC[N+](C)(C)C)C1 [Compound 2f]
inhibition at 25 µM [1]: 0%
inhibition at 50 µM [1]: 9%
Activity at both 50 and 25 µM concentrations (in words) ([1]; both 50 and 25 µM): completely inactive
